Test results taken from patent publication US8546375B2, “(3-(4-(aminomethyl)phenoxy or phenylthio)azetidin-1-yl)(5-phenyl-1,3,4-oxadiazol-2-yl)methanone compounds” (AstraZeneca AB, priority 2010, dated 2013).
Where a name gives a salt, the structure may show the parent alone.

molecular target: T1, Melanin Concentrating Hormone Receptor 1 (MCHR1) (Homo sapiens, UniProt Q99705); assay: MCHR1 Receptor Activation Assay (GTPγ^35S); format: biochemical; details: read-out: GTPγ^35S IC50
T1 construct: expressed in transfected cells
T1 sequence (Q99705 whole entry): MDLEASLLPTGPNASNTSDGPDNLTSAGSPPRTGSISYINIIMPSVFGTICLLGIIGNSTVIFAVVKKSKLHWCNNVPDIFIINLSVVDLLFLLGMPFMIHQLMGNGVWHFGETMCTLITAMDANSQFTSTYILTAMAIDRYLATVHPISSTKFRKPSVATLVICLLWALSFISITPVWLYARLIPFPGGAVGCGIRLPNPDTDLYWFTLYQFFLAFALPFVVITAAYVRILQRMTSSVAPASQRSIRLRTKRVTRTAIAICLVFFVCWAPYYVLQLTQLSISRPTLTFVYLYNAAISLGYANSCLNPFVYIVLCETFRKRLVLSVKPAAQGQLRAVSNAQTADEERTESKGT

SMILES | IC50 [nM]
CN(C)Cc1ccc(OC2CN(C(=O)c3nnc(-c4ccccc4)o3)C2)c(F)c1F [Example 39, (3-(4-((Dimethylamino)methyl)-2,3-difluorophenoxy)azetidin-1-yl)(5-phenyl-1,3,4-oxadiazol-2-yl)methanone] | 49
COc1ccc(-c2nnc(C(=O)N3CC(Oc4ccc(CN(C)C)c(F)c4F)C3)o2)cc1 [Example 40, (3-(4-((Dimethylamino)methyl)-2,3-difluorophenoxy)azetidin-1-yl)(5-(4-methoxyphenyl)-1,3,4-oxadiazol-2-yl)methanone] | 27
Cc1ccc(-c2nnc(C(=O)N3CC(Oc4ccc(CN(C)C)c(C)c4)C3)o2)cc1 [Example 22, (3-(4-((Dimethylamino)methyl)-3-methylphenoxy)azetidin-1-yl)(5-p-tolyl-1,3,4-oxadiazol-2-yl)methanone] | 25
Cc1cc(CN2CCOCC2)ccc1OC1CN(C(=O)c2nnc(-c3ccc(Cl)cc3)o2)C1 [Example 15, (5-(4-Chlorophenyl)-1,3,4-oxadiazol-2-yl)(3-(2-methyl-4-(morpholinomethyl)phenoxy)azetidin-1-yl)methanone] | 10
CN(C)Cc1ccc(OC2CN(C(=O)c3nnc(-c4ccc(Cl)cc4)o3)C2)cc1 [Example 36, (5-(4-Chlorophenyl)-1,3,4-oxadiazol-2-yl)(3-(4-((dimethylamino)methyl)phenoxy)azetidin-1-yl)methanone] | 13
COc1ccc(-c2nnc(C(=O)N3CC(Oc4ccc(CN5CCCC5)c(F)c4)C3)o2)cc1 [Example 32, (3-(3-Fluoro-4-(pyrrolidin-1-ylmethyl)phenoxy)azetidin-1-yl)(5-(4-methoxyphenyl)-1,3,4-oxadiazol-2-yl)methanone] | 15
COc1ccc(-c2nnc(C(=O)N3CC(Oc4ccc(CN(C)C)c(C)c4)C3)o2)cc1 [Example 20, (3-(4-((Dimethylamino)methyl)-3-methylphenoxy)azetidin-1-yl)(5-(4-methoxyphenyl)-1,3,4-oxadiazol-2-yl)methanone] | 24
COc1ccc(-c2nnc(C(=O)N3CC(Oc4ccc(CN5CCC5)cc4)C3)o2)cc1 [Example 41, (3-(4-(Azetidin-1-ylmethyl)phenoxy)azetidin-1-yl)(5-(4-methoxyphenyl)-1,3,4-oxadiazol-2-yl)methanone] | 25
COc1ccc(-c2nnc(C(=O)N3CC(Oc4ccc(CN5CCN(C(C)=O)CC5)cc4)C3)o2)cc1 [Example 24, 1-(4-(4-(1-(5-(4-Methoxyphenyl)-1,3,4-oxadiazole-2-carbonyl)azetidin-3-yloxy)benzyl)piperazin-1-yl)ethanone] | 44
COc1ccc(-c2nnc(C(=O)N3CC(Oc4ccc(CN(C)C)cc4)C3)o2)cc1 [Example 38, (3-(4-((Dimethylamino)methyl)phenoxy)azetidin-1-yl)(5-(4-methoxyphenyl)-1,3,4-oxadiazol-2-yl)methanone] | 27
O=C(c1nnc(-c2ccccc2)o1)N1CC(Oc2ccc(CN3CCC3)cc2)C1 [Example 42, (3-(4-(azetidin-1-ylmethyl)phenoxy)azetidin-1-yl)(5-phenyl-1,3,4-oxadiazol-2-yl)methanone] | 26
COc1ccc(-c2nnc(C(=O)N3CC(Oc4ccc(CN(C)C)cc4C)C3)o2)cc1 [Example 17, (3-(4-((Dimethylamino)methyl)-2-methylphenoxy)azetidin-1-yl)(5-(4-methoxyphenyl)-1,3,4-oxadiazol-2-yl)methanone] | 25
Cc1cc(CN2CCCC2)ccc1OC1CN(C(=O)c2nnc(-c3ccc(Cl)cc3)o2)C1 [Example 19, (5-(4-Chlorophenyl)-1,3,4-oxadiazol-2-yl)(3-(2-methyl-4-(pyrrolidin-1-ylmethyl)phenoxy)azetidin-1-yl)methanone] | 6.5
Cc1cc(OC2CN(C(=O)c3nnc(-c4ccc(Cl)cc4)o3)C2)ccc1CN(C)C [Example 44, (5-(4-Chlorophenyl)-1,3,4-oxadiazol-2-yl)(3-(4-((dimethylamino)methyl)-3-methylphenoxy)azetidin-1-yl)methanone] | 10
Cc1ccc(-c2nnc(C(=O)N3CC(Oc4ccc(CN5CCOCC5)cc4C)C3)o2)cc1 [Example 13, (3-(2-Methyl-4-(morpholinomethyl)phenoxy)azetidin-1-yl)(5-p-tolyl-1,3,4-oxadiazol-2-yl)methanone] | 29

Other lines, results leading:

IC50 [nM] | SMILES
19 | CN(C)Cc1ccc(OC2CN(C(=O)c3nnc(-c4ccc(OC(F)F)cc4)o3)C2)cc1F [Example 51, (5-(4-(Difluoromethoxy)phenyl)-1,3,4-oxadiazol-2-yl)(3-(4-((dimethylamino)methyl)-3-fluorophenoxy)azetidin-1-yl)methanone]
17 | CCC1(O)CN(Cc2ccc(OC3CN(C(=O)c4nnc(-c5ccccc5)o4)C3)cc2C)C1 [Example 75, (3-(4-((3-Ethyl-3-hydroxyazetidin-1-yl)methyl)-3-methylphenoxy)azetidin-1-yl)(5-phenyl-1,3,4-oxadiazol-2-yl)methanone]
22 | COc1ccc(-c2nnc(C(=O)N3CC(Oc4ccc(CN5CC(OC)C5)cc4)C3)o2)cc1 [Example 55, (3-(4-((3-Methoxyazetidin-1-yl)methyl)phenoxy)azetidin-1-yl)(5-(4-methoxyphenyl)-1,3,4-oxadiazol-2-yl)methanone]
18 | CN(C)Cc1ccc(OC2CN(C(=O)c3nnc(-c4ccccc4)o3)C2)cc1Cl [Example 48, (3-(3-Chloro-4-((dimethylamino)methyl)phenoxy)azetidin-1-yl)(5-phenyl-1,3,4-oxadiazol-2-yl)methanone]
40 | CC1(O)CN(Cc2ccc(OC3CN(C(=O)c4nnc(-c5ccccc5)o4)C3)cc2)C1 [Example 77, (3-(4-((3-Hydroxy-3-methylazetidin-1-yl)methyl)phenoxy)azetidin-1-yl)(5-phenyl-1,3,4-oxadiazol-2-yl)methanone]
11 | COc1ccc(-c2nnc(C(=O)N3CC(Oc4ccc(CN5CCC(C)(CO)C5)c(C)c4)C3)o2)cc1 (stereo not shown) [Example 91, (3-(4-((3-(hydroxymethyl)-3-methylpyrrolidin-1-yl)methyl)-3-methylphenoxy)azetidin-1-yl)(5-(4-methoxyphenyl)-1,3,4-oxadiazol-2-yl)methanone]
18 | CCC1(O)CN(Cc2ccc(OC3CN(C(=O)c4nnc(-c5ccccc5)o4)C3)c(C)c2)C1 [Example 74, (3-(4-((3-Ethyl-3-hydroxyazetidin-1-yl)methyl)-2-methylphenoxy)azetidin-1-yl)(5-phenyl-1,3,4-oxadiazol-2-yl)methanone]
23 | COc1ccc(-c2nnc(C(=O)N3CC(Oc4ccc(CN5CC(C)(O)C5)c(C)c4)C3)o2)cc1 [Example 80, (3-(4-((3-Hydroxy-3-methylazetidin-1-yl)methyl)-3-methylphenoxy)azetidin-1-yl)(5-(4-methoxyphenyl)-1,3,4-oxadiazol-2-yl)methanone]
20 | CN(Cc1ccc(SC2CN(C(=O)c3nnc(-c4ccccc4)o3)C2)cc1)CC1CCOC1 (stereo not shown) [Example 65, (3-(4-((Methyl((tetrahydrofuran-3-yl)methyl)amino)methyl)phenylthio)azetidin-1-yl)(5-phenyl-1,3,4-oxadiazol-2-yl)methanone]
23 | CNCc1ccc(SC2CN(C(=O)c3nnc(-c4ccccc4)o3)C2)cc1 [Example 63, (3-(4-((Methylamino)methyl)phenylthio)azetidin-1-yl)(5-phenyl-1,3,4-oxadiazol-2-yl)methanone hydrochloride]
13 | COc1ccc(-c2nnc(C(=O)N3CC(Oc4ccc(CN5CC(O)(C6CC6)C5)cc4)C3)o2)cc1 [Example 56, (3-(4-((3-Cyclopropyl-3-hydroxyazetidin-1-yl)methyl)phenoxy)azetidin-1-yl)(5-(4-methoxyphenyl)-1,3,4-oxadiazol-2-yl)methanone]
31 | CNCc1ccc(OC2CN(C(=O)c3nnc(-c4ccc(OC)cc4)o3)C2)c(C)c1 [Example 54, (5-(4-Methoxyphenyl)-1,3,4-oxadiazol-2-yl)(3-(2-methyl-4-((methylamino)methyl)phenoxy)azetidin-1-yl)methanone]
22 | COc1ccc(-c2nnc(C(=O)N3CC(Oc4ccc(CN5CCC(CO)CC5)cc4)C3)o2)cc1 [Example 89, (3-(4-((4-(hydroxymethyl)piperidin-1-yl)methyl)phenoxy)azetidin-1-yl)(5-(4-methoxyphenyl)-1,3,4-oxadiazol-2-yl)methanone]
34 | COc1ccc(-c2nnc(C(=O)N3CC(Oc4ccc(CN5CC(C)(O)C5)cc4Cl)C3)o2)cc1 [Example 79, (3-(2-Chloro-4-((3-hydroxy-3-methylazetidin-1-yl)methyl)phenoxy)azetidin-1-yl)(5-(4-methoxyphenyl)-1,3,4-oxadiazol-2-yl)methanone]
13 | COC1CN(Cc2ccc(SC3CN(C(=O)c4nnc(-c5ccccc5)o4)C3)cc2)C1 [Example 62, (3-(4-((3-Methoxyazetidin-1-yl)methyl)phenylthio)azetidin-1-yl)(5-phenyl-1,3,4-oxadiazol-2-yl)methanone]
24 | COc1ccc(-c2nnc(C(=O)N3CC(Oc4ccc(CN5CCCC5)c(OC)c4C)C3)o2)cc1 [Example 52, (3-(3-Methoxy-2-methyl-4-(pyrrolidin-1-ylmethyl)phenoxy)azetidin-1-yl)(5-(4-methoxyphenyl)-1,3,4-oxadiazol-2-yl)methanone]
18 | COC1CN(Cc2ccc(OC3CN(C(=O)c4nnc(-c5ccccc5)o4)C3)c(Cl)c2)C1 [Example 57, (3-(2-Chloro-4-((3-methoxyazetidin-1-yl)methyl)phenoxy)azetidin-1-yl)(5-phenyl-1,3,4-oxadiazol-2-yl)methanone]

same assay, conditions: when tested in the above referenced assays (MCH binding assay; MCHR1 receptor activation assay); read-out: IC50 value

IC50 [nM] | SMILES
≥ 100 | COc1ccc(-c2nnc(C(=O)N3CC(Oc4ccc(CN(C)C)c(OC(F)F)c4)C3)o2)cc1 [(3-(3-(difluoromethoxy)-4-((dimethylamino)methyl)phenoxy)azetidin-1-yl)(5-(4-methoxyphenyl)-1,3,4-oxadiazol-2-yl)methanone]
≥ 100 | COCCN(CCOC)Cc1ccc(OC2CN(C(=O)c3nnc(-c4ccccc4)o3)C2)cc1 [(3-(4-((bis(2-methoxyethyl)amino)methyl)phenoxy)azetidin-1-yl)(5-phenyl-1,3,4-oxadiazol-2-yl)methanone]
